In EP1611112B1, “ISOXAZOLE COMPOUNDS AS INHIBITORS OF HEAT SHOCK PROTEINS” (Vernalis (Cambridge) Limited, priority 2003, dated 2004) one finds IC50 data, which are given here for 60 molecules.

This test addresses T1, human full-length HSP90 (Homo sapiens, UniProt P08238).
T1 construct: E. coli expressed human full-length HSP90 protein; made in house; host or cells: E. coli
In words: Fluorescence Polarisation Assay (displacement of fluorescein-labelled probe RBT0045864-FAM). It counts as binding. The source says:
A Fluorescence Polarization_assay was also employed for the evaluation of some of the compounds of the Examples:
Fluorescence polarization {also known as fluorescence anisotropy} measures the rotation of a fluorescing species in solution, where the larger molecule the more polarized the fluorescence emission.
When the fluorophore is excited with polarized light, the emitted light is also polarized. The molecular size is proportional to the polarization of the fluorescence emission.
Test compound is added to the assay plate, left to equilibrate and the anisotropy measured again. Any change in anisotropy is due to competitive binding of compound to HSP90, thereby releasing probe.
Stored at room temperature. • 3) BSA (bovine serum albumen) 10 mg/ml (New England Biolabs # B9001S) • 4) 20 mM probe in 100 % DMSO stock concentration. Stored in the dark at RT. Working concentration is 200 nM diluted in AR water and stored at 4 °C.
1) Add 100µl 1x buffer to wells 11A and 12A (=FP BLNK) 2) Prepare assay mix - all reagents are kept on ice with a lid on the bucket as the probe is light-sensitive.
This gives 2.5 mM {50x} stock cpd - assuming cpds 20 mM. • 4) Repeat for wells A2 to A10. Control in columns 11 and 12. • 5) Transfer 5 µl from row A to row B- not column 12. Mix well. • 6) Transfer 5 µl from row B to row C. […] Add 2 µl of 100mM standard cpd to wells B12 - H12 {is positive control } • 13)The Z' factor is calculated from zero controls and positive wells.
A general note: Fluorescence polarisation rises when a labelled molecule tumbles more slowly, as on binding a larger partner.

Setting [1] is: Fluorescence Polarisation Assay, activity range.
[2] abbreviates: table names no assay, parent examples tested in fluorescence polarization assay.

Structures are written as SMILES. pIC50: −log10 of the molar value.

T1 sequence (P08238 whole entry): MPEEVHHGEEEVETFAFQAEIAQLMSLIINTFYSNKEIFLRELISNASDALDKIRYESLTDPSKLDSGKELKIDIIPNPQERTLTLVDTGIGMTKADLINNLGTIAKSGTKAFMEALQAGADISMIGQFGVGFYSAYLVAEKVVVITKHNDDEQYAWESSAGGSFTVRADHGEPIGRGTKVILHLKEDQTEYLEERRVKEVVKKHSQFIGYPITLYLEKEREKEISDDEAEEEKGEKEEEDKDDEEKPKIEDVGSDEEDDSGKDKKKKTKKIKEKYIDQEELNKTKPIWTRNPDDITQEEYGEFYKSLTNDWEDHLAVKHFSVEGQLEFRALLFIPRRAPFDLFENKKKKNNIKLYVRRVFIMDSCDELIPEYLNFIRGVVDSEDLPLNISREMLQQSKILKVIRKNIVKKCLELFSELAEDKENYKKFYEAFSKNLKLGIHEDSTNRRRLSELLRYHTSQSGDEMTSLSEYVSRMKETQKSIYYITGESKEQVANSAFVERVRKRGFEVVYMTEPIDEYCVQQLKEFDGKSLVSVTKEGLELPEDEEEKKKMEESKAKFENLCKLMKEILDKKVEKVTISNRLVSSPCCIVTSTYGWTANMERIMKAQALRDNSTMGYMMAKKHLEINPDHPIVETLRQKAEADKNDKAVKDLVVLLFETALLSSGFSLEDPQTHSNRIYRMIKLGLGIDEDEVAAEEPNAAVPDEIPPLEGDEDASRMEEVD

As for `CCNC(=O)c1noc(-c2cc(Cl)c(O)cc2O)c1-c1ccc(OCCN(CC)CC)cc1` [Example 41q], under setting [1], the pIC50 – broadly, the negative decadic logarithm of the IC50, by convention in mol/L – was above 5.00.

Regarding `CCNC(=O)c1noc(-c2cc(-c3ccc(F)cc3)c(O)cc2O)c1-c1ccc(CN2CCOCC2)cc1` [Example 73], under setting [1], the negative logarithm of the IC50 (pIC50) is above 5.00.

As to `CCNC(=O)c1noc(-c2cc(Cl)c(O)cc2O)c1Br` [Example 27a], the pIC50 under setting [1] is above 5.00.

As for `CCN(CC)Cc1ccc(-c2c(C(=O)NC(C)C)noc2-c2cc(C(C)C)c(O)cc2O)cc1` [Example 78u], under setting [2], the pIC50 is above 5.00.

The molecule `CCNC(=O)c1noc(-c2cc(Cl)c(O)cc2O)c1-c1ccc(CN2CCS(=O)(=O)CC2)cc1` [Example 38] gave a pIC50 under setting [1] above 5.00.

Under setting [1], `NC(=O)c1noc(-c2cc(Cl)c(O)cc2O)c1-c1ccc(CN2CCCCC2)cc1` [Example 41h] gave a pIC50 above 5.00.

For the molecule `CCNC(=O)c1noc(-c2cc(C(C)(C)C)c(O)cc2O)c1-c1ccc(CN2CCCCC2)cc1` [Example 77c], under setting [2], the pIC50 was above 5.00.

For the molecule `CCNC(=O)c1noc(-c2cc(-c3ccccc3F)c(O)cc2O)c1-c1ccc(CN2CCCCC2)cc1` [Example 75d], the pIC50 under setting [2] was above 5.00.

`CCNC(=O)c1noc(-c2cc(-c3ccccc3F)c(O)cc2O)c1-c1ccc(CN2CCN(C)CC2)cc1` [Example 75g]: the pIC50 under setting [2] was above 5.00.

Consider `CCNC(=O)c1noc(-c2cc(C(C)C)c(O)cc2O)c1-c1ccc(CNCC(F)(F)F)cc1` [Example 78ab], for which, under setting [2], the pIC50 was above 5.00.

For `CCNC(=O)c1noc(-c2cc(Cl)c(O)cc2O)c1-c1ccc(N2CCN(C)CC2)cc1` [Example 36], the pIC50 under setting [1] is above 5.00.

With `CCNC(=O)c1noc(-c2cc(Cl)c(O)cc2O)c1-c1ccc(CN2CCN(C)CC2)cc1` [Example 47], the pIC50 under setting [1] is above 5.00.

`CCNC(=O)c1noc(-c2cc(Cl)c(O)cc2O)c1-c1ccc(CNCc2cccnc2)cc1` [Example 58] gave a pIC50 under setting [1] above 5.00.

Turning to `COc1ccc(-c2c(-c3cc(Br)c(O)cc3O)noc2C)cc1` [Example 76, 4-Bromo-6-[4-(4-methoxy-phenyl)-5-methyl-isoxazol-3-yl]-benzene-1,3-diol], the pIC50 under setting [1] is above 5.00.

With `CC(C)NC(=O)c1noc(-c2cc(C(C)C)c(O)cc2O)c1-c1ccc(CN2CCN(C)CC2)cc1` [Example 78t], the pIC50 under setting [2] is above 5.00.

With `CCNC(=O)c1noc(-c2cc(Cl)c(O)cc2O)c1-c1ccc(CN2CCCCC2)cc1C` [Example 41i], the pIC50 under setting [1] is above 5.00.

Take `CCNC(=O)c1noc(-c2cc(CC)c(O)cc2O)c1-c1ccc(CN2CCCCC2)cc1` [Example 56]: the pIC50 under setting [1] was above 5.00.

Under setting [1], `CCNC(=O)c1noc(-c2cc(Cl)c(O)cc2O)c1-c1ccc(CO)cc1` [Example 41n] showed a pIC50 above 5.00.

Molecule `COc1ccc(-c2c(C)noc2-c2cc(C#N)c(O)cc2O)cc1` [Example 12b] gave a pIC50 (Fluorescence Polarisation Assay, key in footnote of the table) above 5.00.

As to `CCNC(=O)c1noc(-c2cc(-c3c(C)noc3C)c(O)cc2O)c1-c1ccc(CN2CCCCC2)cc1` [Example 75v], the pIC50 under setting [2] was above 5.00.

On to `CCNC(=O)c1noc(-c2cc(C(C)C)c(O)cc2O)c1-c1ccc(CN2CCC(N)CC2)cc1` [Example 78af], for which the pIC50 under setting [2] is above 5.00.

Under setting [1], `CCNC(=O)c1noc(-c2cc(CCc3ccc(F)cc3)c(O)cc2O)c1-c1ccc(CN2CCOCC2)cc1` [Example 70] gave a pIC50 above 5.00.

For the molecule `CCNC(=O)c1noc(-c2cc(C(C)(C)C)c(O)cc2O)c1-c1ccc(OC)cc1` [Example 77f], the pIC50 under setting [2] is above 5.00.

As to `CCNC(=O)c1noc(-c2cc(C(C)C)c(O)cc2O)c1-c1ccc(CNC(C)C)cc1` [Example 78e], under setting [2], the pIC50 was above 5.00.

Regarding `CCNC(=O)c1noc(-c2cc(Cl)c(O)cc2O)c1-c1ccc(CN(C)C)cc1` [Example 59], the pIC50 under setting [1] was above 5.00.

For the molecule `CCNC(=O)c1noc(-c2cc(Cl)c(O)cc2O)c1-c1cccc(CN2CCOCC2)c1` [Example 45], the pIC50 under setting [1] was above 5.00.

For `CCNC(=O)c1noc(-c2cc(Cl)c(O)cc2O)c1-c1ccc(OC)cc1` [Example 25, 5-(5-chloro-2,4-dihydroxyphenyl)-4-(4-methoxy-phenyl)-isoxazole-3-carboxylic acid ethylamide], the pIC50 under setting [1] was above 5.00.

As to `CC(C)NC(=O)c1noc(-c2cc(C(C)C)c(O)cc2O)c1-c1ccc(CNC2CCCC2)cc1` [Example 78y], the pIC50 under setting [2] was above 5.00.

As to `CCNC(=O)c1noc(-c2cc(Cl)c(O)cc2O)c1-c1ccc2ncccc2c1` [Example 33], the negative-log IC50 (pIC50) under setting [1] was above 5.00.

As to `CCNC(=O)c1noc(-c2cc(Cl)c(O)cc2O)c1-c1cccnc1` [Example 34], the pIC50 under setting [1] is above 5.00.

The molecule `CCNC(=O)c1noc(-c2cc(Cl)c(O)cc2O)c1-c1cccc2ccccc12` [Example 35] gave a pIC50 under setting [1] above 5.00.

`CCNC(=O)c1noc(-c2cc(CC)c(O)cc2O)c1-c1ccc(CN2CCOCC2)cc1` [Example 55]: the pIC50 under setting [1] is above 5.00.

Regarding `CCNC(=O)c1noc(-c2cc(Cl)c(O)cc2O)c1-c1ccc(N2CCNCC2)cc1` [Example 26], the pIC50 under setting [1] is above 5.00.

`CCNC(=O)c1noc(-c2cc(Cl)c(O)cc2O)c1-c1ccc(C(C)N2CCOCC2)cc1` (stereo not drawn) [Example 42] gave a pIC50 under setting [1] above 5.00.

As for `CCNC(=O)c1noc(-c2cc(Cl)c(O)cc2O)c1-c1ccc(CN2CCCCC2)c2ccccc12` [Example 41r], the pIC50 under setting [1] was above 5.00.

`CCNC(=O)c1noc(-c2cc(CCc3ccc(F)cc3)c(O)cc2O)c1-c1ccc(CN2CCCCC2)cc1` [Example 69] gave a negative-log IC50 (pIC50) under setting [1] above 5.00.

As for `CCNC(=O)c1noc(-c2cc(Cl)c(O)cc2O)c1-c1ccc(CNCCS(C)(=O)=O)cc1` [Example 37], the pIC50 under setting [1] is above 5.00.

In the case of `CCNC(=O)c1noc(-c2cc(CCc3cccc(C)c3)c(O)cc2O)c1-c1ccc(CN2CCOCC2)cc1` [Example 75c], the pIC50 under setting [2] was above 5.00.

For `CNC(=O)c1noc(-c2cc(Cl)c(O)cc2O)c1-c1ccc(CN2CCCCC2)cc1` [Example 41c], the pIC50 under setting [1] was above 5.00.

Consider `Cc1noc(-c2cc(Cl)c(O)cc2O)c1-c1cccc(CN2CCC(C(N)=O)CC2)c1` [Example 29, 1-{3-[5-(5-Chloro-2,4-dihydroxy-phenyl)-3-methyl-isoxazol-4-yl]-benzyl}-piperidine-4-carboxylic acid amide], for which the pIC50 under setting [1] is above 5.00.

Regarding `CCNC(=O)c1noc(-c2cc(-c3ccccc3)c(O)cc2O)c1-c1ccc(CN2CCCCC2)cc1` [Example 75b], under setting [2], the pIC50 is above 5.00.

Turning to `CCNC(=O)c1noc(-c2cc(-c3ccccc3)c(O)cc2O)c1-c1ccc(CN(CC)CC)cc1` [Example 75p], the pIC50 under setting [2] is above 5.00.

Take `CCNC(=O)c1noc(-c2cc(CCc3cccc(C)c3)c(O)cc2O)c1-c1ccc(CN2CCCCC2)cc1` [Example 75a]: the pIC50 under setting [2] was above 5.00.

As to `CC(C)NC(=O)c1noc(-c2cc(C(C)C)c(O)cc2O)c1-c1ccc(CNC(C)(C)C)cc1` [Example 78z], the pIC50 under setting [2] is above 5.00.

Consider `CCNC(=O)c1noc(-c2cc(C(C)(C)C)c(O)cc2O)c1-c1ccc(F)cc1` [Example 77e], for which the pIC50 under setting [2] is above 5.00.

Consider `CCNC(=O)c1noc(-c2cc(CC)c(O)cc2O)c1-c1ccc(CN(CC)CC)cc1` [Example 41b], for which the negative-log IC50 (pIC50) under setting [1] is above 5.00.

Consider `CCNC(=O)c1noc(-c2cc(Cl)c(O)cc2O)c1-c1cccc(CN2CCN(C)CC2)c1` [Example 48], for which, under setting [1], the pIC50 is above 5.00.

Take `CCNC(=O)CNCc1ccc(-c2c(C(=O)NCC)noc2-c2cc(C(C)C)c(O)cc2O)cc1` [Example 78ah]: under setting [2], the pIC50 is above 5.00.

As to `CCNC(=O)c1noc(-c2cc(-c3ccccc3C)c(O)cc2O)c1-c1ccc(CN(CC)CC)cc1` [Example 75t], the pIC50 under setting [2] was above 5.00.

Take `CCNC(=O)c1noc(-c2cc(Cl)c(O)cc2O)c1-c1ccc(CN2CCOCC2)cc1` [Example 41, 5-(5-Chloro-2,4-dihydroxy-phenyl)-4-(4-morpholin-4-ylmethyl-phenyl)-isoxazole-3-carboxylic acid ethylamide]: the pIC50 under setting [1] is above 5.00.

With `CCNC(=O)c1noc(-c2cc(Cl)c(O)cc2O)c1-c1ccc(CN2CCC(CO)CC2)cc1` [Example 50], the negative-log IC50 (pIC50) under setting [1] was above 5.00.

Turning to `CCNC(=O)c1noc(-c2cc(-c3ccc(F)cc3)c(O)cc2O)c1-c1ccc(CN2CCCCC2)cc1` [Example 72], under setting [1], the pIC50 is above 5.00.

`CCNC(=O)c1noc(-c2cc(CC)c(O)cc2O)c1-c1ccc(CN2CCN(C)CC2)cc1` [Example 57] gave a pIC50 under setting [1] above 5.00.

As to `Cc1nc(-c2c(-c3ccc(O)cc3O)noc2C(F)(F)F)cs1` [Example 76A], the negative-log IC50 (pIC50) under setting [1] is below 5.00.

For the molecule `CCNC(=O)c1noc(-c2cc(C(C)C)c(O)cc2O)c1-c1ccc(CN2CCC(F)(F)CC2)cc1` [Example 78ac], the pIC50 under setting [2] is above 5.00.

Consider `CCNC(=O)c1noc(-c2cc(-c3ccccc3C)c(O)cc2O)c1-c1ccc(CN2CCN(C)CC2)cc1` [Example 75s], for which the pIC50 under setting [2] is above 5.00.

Regarding `CCNC(=O)c1noc(-c2cc(C(C)(C)C)c(O)cc2O)c1-c1ccc(CN(CC)CC)cc1` [Example 77b], the pIC50 under setting [2] was above 5.00.

`CCNC(=O)c1noc(-c2cc(Cl)c(O)cc2O)c1-c1ccc(F)cc1F` [Example 41e] gave a pIC50 under setting [1] above 5.00.

The molecule `CCNC(=O)c1noc(-c2cc(Cl)c(O)cc2O)c1-c1ccc(F)c(CN2CCOCC2)c1` [Example 64] showed a pIC50 under setting [1] above 5.00.

Regarding `CCNC(=O)c1noc(-c2cc(CCc3cccc(F)c3)c(O)cc2O)c1-c1ccc(CN2CCOCC2)cc1` [Example 75], the pIC50 under setting [1] was above 5.00.
